Data on 1 compound can be found in paper PMC6934184, “Selective DNA-PKcs inhibition extends the therapeutic index of localized radiotherapy and chemotherapy” (The Journal of Clinical Investigation, 2019).

The test deals with T1, PIK3C2B (PI3K-C2 beta) (Homo sapiens, UniProt O00750).
T1 construct: purchased Thermo Fisher Scientific (Life Technologies) SelectScreen
As to the kind of experiment: SelectScreen Adapta. The test is classed as biochemical. The conditions noted are these: ATP 10 µM. An outline of the steps: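 NU5455 was profiled across the SelectScreen Broad panel of kinase activity and binding assays. Z'LYTE reactions such as CSF1R ran at apparent Km ATP, while the Adapta CAMK1 assay used ATP listed as 10. Values are given as percent.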

T1 sequence (O00750 whole entry): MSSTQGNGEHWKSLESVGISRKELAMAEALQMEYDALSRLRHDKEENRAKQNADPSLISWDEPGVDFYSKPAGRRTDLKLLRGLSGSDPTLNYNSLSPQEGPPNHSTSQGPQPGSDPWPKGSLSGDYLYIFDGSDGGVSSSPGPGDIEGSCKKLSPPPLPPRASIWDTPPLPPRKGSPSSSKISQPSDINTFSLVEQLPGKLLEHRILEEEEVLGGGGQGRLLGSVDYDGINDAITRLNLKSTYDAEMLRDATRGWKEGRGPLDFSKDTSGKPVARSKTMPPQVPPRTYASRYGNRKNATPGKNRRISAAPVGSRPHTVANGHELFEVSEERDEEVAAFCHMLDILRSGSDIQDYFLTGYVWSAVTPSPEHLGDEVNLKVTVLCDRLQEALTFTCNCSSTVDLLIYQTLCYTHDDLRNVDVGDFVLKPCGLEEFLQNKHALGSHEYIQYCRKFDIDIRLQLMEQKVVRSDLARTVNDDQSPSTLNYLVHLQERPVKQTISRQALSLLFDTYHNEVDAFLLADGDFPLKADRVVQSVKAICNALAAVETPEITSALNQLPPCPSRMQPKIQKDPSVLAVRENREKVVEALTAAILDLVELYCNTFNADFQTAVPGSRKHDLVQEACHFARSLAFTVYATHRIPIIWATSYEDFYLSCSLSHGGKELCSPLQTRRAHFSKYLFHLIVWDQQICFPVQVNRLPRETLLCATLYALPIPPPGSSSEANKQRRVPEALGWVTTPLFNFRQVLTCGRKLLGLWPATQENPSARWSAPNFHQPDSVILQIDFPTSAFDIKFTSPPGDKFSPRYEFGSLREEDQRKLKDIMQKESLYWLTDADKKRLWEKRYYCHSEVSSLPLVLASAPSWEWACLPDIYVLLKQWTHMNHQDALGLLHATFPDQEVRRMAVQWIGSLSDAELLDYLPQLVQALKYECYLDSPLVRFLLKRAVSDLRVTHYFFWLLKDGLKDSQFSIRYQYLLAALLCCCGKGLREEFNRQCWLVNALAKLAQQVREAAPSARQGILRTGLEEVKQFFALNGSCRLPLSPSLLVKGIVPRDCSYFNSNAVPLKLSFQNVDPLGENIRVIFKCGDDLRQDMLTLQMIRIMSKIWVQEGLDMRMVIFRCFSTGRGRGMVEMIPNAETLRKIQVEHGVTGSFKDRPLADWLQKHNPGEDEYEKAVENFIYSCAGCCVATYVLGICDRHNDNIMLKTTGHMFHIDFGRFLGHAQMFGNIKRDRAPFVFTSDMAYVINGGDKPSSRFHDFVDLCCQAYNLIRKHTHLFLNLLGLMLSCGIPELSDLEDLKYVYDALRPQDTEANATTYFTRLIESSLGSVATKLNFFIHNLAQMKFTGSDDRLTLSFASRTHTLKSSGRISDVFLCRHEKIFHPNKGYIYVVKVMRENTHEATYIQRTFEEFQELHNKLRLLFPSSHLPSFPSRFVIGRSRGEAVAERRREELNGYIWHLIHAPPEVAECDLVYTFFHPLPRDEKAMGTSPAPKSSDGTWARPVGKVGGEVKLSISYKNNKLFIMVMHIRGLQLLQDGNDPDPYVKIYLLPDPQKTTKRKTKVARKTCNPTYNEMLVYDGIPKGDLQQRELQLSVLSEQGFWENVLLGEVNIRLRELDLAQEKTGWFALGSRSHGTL

On to `CN(C(=O)CN1CCOCC1)c1ccc2sc3c(-c4cccc5c(=O)cc(N6CC7CCC(C6)O7)oc45)cccc3c2c1` [NU5455], for which the inhibition at 1 µM is 28.9%.
